Laboratory results published in patent US6624160B2, “4-oxo-1,4-dihydro-3-cinnolinecarboxamides as antiviral agents” (Pharmacia & Upjohn Co., priority 2000, dated 2003).

What was measured:
[1] = molecular target: T1, HCMV polymerase (Human cytomegalovirus, UniProt P08546); test: HCMV polymerase assay (scintillation proximity assay, modified version); assay type: biochemical; details: modified SPA assay; compounds diluted in 100% DMSO; 4.5 mM DTT
T1 construct: made in house; host or cells: recombinant baculovirus-infected SF-9 cells
T1 sequence (P08546 whole entry): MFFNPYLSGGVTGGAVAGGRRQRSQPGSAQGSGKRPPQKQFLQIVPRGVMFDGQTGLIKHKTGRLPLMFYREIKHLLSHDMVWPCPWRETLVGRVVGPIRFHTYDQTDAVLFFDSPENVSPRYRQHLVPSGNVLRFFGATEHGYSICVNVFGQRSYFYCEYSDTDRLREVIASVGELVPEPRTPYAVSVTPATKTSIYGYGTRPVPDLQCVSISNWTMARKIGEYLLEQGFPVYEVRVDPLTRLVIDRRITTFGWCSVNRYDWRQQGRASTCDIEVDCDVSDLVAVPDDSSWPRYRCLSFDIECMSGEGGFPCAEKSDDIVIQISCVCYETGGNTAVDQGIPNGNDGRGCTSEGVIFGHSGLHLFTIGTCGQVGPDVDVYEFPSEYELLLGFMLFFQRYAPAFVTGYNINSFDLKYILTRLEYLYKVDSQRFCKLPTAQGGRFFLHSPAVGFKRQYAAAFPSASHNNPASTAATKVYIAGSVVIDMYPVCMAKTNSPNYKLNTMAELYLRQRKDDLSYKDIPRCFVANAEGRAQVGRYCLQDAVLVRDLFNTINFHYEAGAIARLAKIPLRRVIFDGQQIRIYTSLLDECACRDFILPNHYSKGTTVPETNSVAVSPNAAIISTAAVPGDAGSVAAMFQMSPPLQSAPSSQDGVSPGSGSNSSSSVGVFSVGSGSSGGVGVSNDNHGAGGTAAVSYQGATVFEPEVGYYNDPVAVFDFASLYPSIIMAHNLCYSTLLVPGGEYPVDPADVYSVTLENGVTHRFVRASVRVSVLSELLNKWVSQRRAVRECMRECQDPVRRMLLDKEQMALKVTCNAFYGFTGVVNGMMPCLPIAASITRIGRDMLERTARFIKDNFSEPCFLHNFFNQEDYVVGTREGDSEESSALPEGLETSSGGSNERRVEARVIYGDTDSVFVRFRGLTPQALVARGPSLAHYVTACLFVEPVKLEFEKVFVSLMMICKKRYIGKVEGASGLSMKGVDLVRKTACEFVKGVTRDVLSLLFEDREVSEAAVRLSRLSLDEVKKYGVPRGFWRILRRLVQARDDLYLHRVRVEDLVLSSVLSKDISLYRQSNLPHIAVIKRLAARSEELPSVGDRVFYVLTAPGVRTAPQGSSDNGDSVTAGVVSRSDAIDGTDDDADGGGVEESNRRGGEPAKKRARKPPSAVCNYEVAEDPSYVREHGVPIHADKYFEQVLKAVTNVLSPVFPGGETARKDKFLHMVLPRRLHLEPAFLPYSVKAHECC
Description: The HCMV polymerase assay is performed using a scintillation proximity assay (SPA) as described in several references, such as N. D. Cook, et al., Pharmaceutical Manufacturing International, pages 49-53 (1992); K. Takeuchi, Laboratory Practice, September issue (1992); U.S. Pat. No. 4,568,649 (1986); which are incorporated by reference herein. Reactions are performed in 96-well plates. The assay is conducted in 100 μl volume with 5.4 mM HEPES (pH 7.5), 11.7 mM KCl, 4.5 mM MgCl2, 0.36 mg/ml BSA, and 90 nM ^3H-dTTP. Assays are run with and without CHAPS, (3-[(3-cholamidopropyl)-dimethylammonio]-1-propane-sulfonate) at a final concentration of 2 mM. HCMV polymerase is diluted in enzyme dilution buffer containing 50% glycerol, 250 mM NaCl, 10 mM HEPES (pH 7.5), 100 μg/ml BSA, and 0.01% sodium azide. The HCMV polymerase, which is expressed in recombinant baculovirus-infected SF-9 cells and purified according to literature procedures, is added at 10% (or 10 μl) of the final reaction volume, i.e., 100 μl. Compounds are diluted in 50% DMSO and 10 μl are added to each well. Control wells contain an equivalent concentration of DMSO. Unless noted otherwise, reactions are initiated via the addition of 6 nM biotinylated poly(dA)-oligo(dT) template/primer to reaction mixtures containing the enzyme, substrate, and compounds of interest. Plates are incubated in a 25° C. or 37° C. H2O bath and terminated via the addition of 40 μl/reaction of 0.5 M EDTA (pH 8) per well. Reactions are terminated within the time-frame during which substrate incorporation is linear and varied depending upon the enzyme and conditions used, i.e., 30 min. for HCMV polymerase. Ten μl of streptavidin-SPA beads (20 mg/ml in PBS/10% glycerol) are added following termination of the reaction. Plates are incubated 10 min. at 37° C., then equilibrated to room temperature, and counted on a Packard Topcount. Linear regressions are performed and IC50's are calculated using computer software.
A modified version of the above HCMV polymerase assay is performed as described above, but with the following changes: Compounds are diluted in 100% DMSO until final dilution into assay buffer. In the previous assay, compounds are diluted in 50% DMSO. 4.5 mM dithiotherotol (DTT) is added to the polymerase buffer. […] All results are listed as Polymerase IC50 (μM) values. In Table 1, the term “nd” refers to activity data not determined.

[2] = molecular target: HSV polymerase (Human herpesvirus 1, UniProt P04293); test: HSV polymerase assay (Table 1); assay type: biochemical
Chain of HSV polymerase (P04293 whole entry): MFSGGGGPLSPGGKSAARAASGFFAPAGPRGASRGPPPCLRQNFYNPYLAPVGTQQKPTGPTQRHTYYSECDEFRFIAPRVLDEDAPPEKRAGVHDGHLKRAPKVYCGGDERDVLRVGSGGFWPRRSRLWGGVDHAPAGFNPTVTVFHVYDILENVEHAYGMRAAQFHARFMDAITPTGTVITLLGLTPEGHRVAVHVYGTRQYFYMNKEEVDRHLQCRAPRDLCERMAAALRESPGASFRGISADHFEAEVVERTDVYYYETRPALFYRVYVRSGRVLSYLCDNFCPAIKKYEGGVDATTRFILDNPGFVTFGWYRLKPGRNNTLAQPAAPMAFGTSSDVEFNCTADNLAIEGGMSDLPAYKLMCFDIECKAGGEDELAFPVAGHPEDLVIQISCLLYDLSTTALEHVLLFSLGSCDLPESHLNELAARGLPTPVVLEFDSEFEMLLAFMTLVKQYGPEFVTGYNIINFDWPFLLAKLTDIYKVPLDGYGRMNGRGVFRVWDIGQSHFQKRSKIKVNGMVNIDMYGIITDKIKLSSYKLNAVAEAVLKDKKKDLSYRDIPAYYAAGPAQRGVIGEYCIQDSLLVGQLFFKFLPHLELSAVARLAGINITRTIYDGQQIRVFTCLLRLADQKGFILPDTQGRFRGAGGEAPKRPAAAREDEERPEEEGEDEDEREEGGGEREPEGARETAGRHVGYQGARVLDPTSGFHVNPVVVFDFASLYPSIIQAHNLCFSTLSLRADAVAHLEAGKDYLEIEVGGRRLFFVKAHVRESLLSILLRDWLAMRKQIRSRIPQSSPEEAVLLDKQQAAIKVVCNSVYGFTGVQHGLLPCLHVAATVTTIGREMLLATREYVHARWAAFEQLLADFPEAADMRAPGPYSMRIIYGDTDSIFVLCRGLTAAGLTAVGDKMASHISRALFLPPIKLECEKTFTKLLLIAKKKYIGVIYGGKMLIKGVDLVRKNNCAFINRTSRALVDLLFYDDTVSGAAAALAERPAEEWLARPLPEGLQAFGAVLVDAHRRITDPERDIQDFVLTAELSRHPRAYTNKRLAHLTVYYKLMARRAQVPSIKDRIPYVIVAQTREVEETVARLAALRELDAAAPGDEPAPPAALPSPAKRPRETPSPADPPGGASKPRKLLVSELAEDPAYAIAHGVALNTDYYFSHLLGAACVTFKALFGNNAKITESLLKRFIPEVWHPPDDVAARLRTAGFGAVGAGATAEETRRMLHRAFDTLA

[3] = molecular target: VZV polymerase (Varicella-zoster virus, UniProt P09252); test: VZV polymerase assay (Table 1); assay type: biochemical
Chain of VZV polymerase (P09252 whole entry): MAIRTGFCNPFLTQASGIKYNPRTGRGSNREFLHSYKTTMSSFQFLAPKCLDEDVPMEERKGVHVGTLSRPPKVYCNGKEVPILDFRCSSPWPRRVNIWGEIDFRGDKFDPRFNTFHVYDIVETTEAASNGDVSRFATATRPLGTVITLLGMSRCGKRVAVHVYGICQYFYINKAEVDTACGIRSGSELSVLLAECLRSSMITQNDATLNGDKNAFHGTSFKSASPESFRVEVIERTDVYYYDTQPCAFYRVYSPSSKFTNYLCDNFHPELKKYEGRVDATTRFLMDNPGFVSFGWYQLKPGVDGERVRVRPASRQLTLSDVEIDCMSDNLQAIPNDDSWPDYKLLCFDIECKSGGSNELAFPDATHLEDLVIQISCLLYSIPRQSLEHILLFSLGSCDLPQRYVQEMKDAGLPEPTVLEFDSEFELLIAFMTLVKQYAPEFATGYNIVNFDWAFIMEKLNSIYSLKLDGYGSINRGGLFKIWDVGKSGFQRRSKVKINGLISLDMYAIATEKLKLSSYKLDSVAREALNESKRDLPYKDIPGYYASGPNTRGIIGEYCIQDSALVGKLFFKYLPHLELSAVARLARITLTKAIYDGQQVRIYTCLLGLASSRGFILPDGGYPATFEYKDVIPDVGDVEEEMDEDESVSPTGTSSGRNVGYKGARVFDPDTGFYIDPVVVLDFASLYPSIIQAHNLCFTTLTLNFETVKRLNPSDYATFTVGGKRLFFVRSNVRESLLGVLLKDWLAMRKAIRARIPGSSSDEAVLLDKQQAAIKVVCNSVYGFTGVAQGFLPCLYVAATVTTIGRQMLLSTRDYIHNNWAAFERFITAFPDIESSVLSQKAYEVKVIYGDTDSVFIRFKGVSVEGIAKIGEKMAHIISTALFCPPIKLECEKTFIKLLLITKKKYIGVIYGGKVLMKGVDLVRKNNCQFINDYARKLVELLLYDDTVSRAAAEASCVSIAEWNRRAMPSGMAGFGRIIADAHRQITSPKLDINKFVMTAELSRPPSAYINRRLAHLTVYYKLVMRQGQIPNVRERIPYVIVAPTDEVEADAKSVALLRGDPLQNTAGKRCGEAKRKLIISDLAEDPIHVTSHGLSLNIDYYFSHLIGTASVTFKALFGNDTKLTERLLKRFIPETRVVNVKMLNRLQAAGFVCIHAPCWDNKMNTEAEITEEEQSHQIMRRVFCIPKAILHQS

Row | IC50 [1] [nM] | melting point [°C] | IC50 [2] [nM] | IC50 [3] [nM] | SMILES
1 | 5500 | 194 to 195 | – | – | Cn1nc(C(=O)NCc2ccc(Cl)cc2)c(=O)c2cc(I)ccc21 [Example 1, N-(4-chlorobenzyl)-6-iodo-1-methyl-4-oxo-1,4-dihydro-3-cinnolinecarboxamide]
2 | 1200 | 190 to 192 | – | – | Cn1nc(C(=O)NCc2ccc(Cl)cc2)c(=O)c2cc(CN3CCOCC3)ccc21 [Example 5, N-(4-chlorobenzyl)-1-methyl-6-(4-morpholinylmethyl)-4-oxo-1,4-dihydro-3-cinnolinecarboxamide]
3 | 16700 | 203 to 205 | – | – | Cn1nc(C(=O)NCc2ccc(Cl)cc2)c(=O)c2cc(CO)ccc21 [Example 4, N-(4-chlorobenzyl)-6-(hydroxymethyl)-1-methyl-4-oxo-1,4-dihydro-3-cinnolinecarboxamide]
4 | 9800 | 227 to 229 | – | – | Cn1nc(C(=O)NCc2ccc(Cl)cc2)c(=O)c2cc(C#CCCO)ccc21 [Example 3, N-(4-chlorobenzyl)-6-(4-hydroxy-1-butynyl)-1-methyl-4-oxo-1,4-dihydro-3-cinnolinecarboxamide]
5 | 2700 | 229 to 231 | 1700 | 1100 | Cn1nc(C(=O)NCc2ccc(Cl)cc2)c(=O)c2cc(C#CCO)ccc21 [Example 2, N-(4-chlorobenzyl)-6-(3-hydroxy-1-propynyl)-1-methyl-4-oxo-1,4-dihydro-3-cinnolinecarboxamide]
